Reference: patent US20180002288A1, “USE OF PICOLINAMIDES AS FUNGICIDES” (DOW AGROSCIENCES LLC, priority 2014, published 2018)
Where two headings read alike, the source gives them in different places.

What was measured:
Zymoseptoria tritici = assay: Leaf Blotch of Wheat fungicidal activity (SEPTTR); format: in vivo; conditions: for pest or weed control at 121.5 g/ha: Low Volume Cereal Activity at 121.5 g/Ha; for pest or weed control at 100 ppm: wheat, high volume
Puccinia triticina = assay: Wheat Brown Rust fungicidal activity (PUCCRT); format: in vivo; conditions: for pest or weed control at 121.5 g/ha: Low Volume Cereal Activity at 121.5 g/Ha; for pest or weed control at 100 ppm: wheat, high volume
[1] = 24 h, 1 Day Protectant, read-out: SEPTTR 1DP (Wheat Leaf Blotch, 1 Day Protectant)
[2] = 72 h, 3 Day Curative, read-out: SEPTTR 3DC (Wheat Leaf Blotch, 3 Day Curative)
[3] = 24 h, 1 Day Protectant, read-out: PUCCRT 1DP (Wheat Brown Rust, 1 Day Protectant)
[4] = 72 h, 3 Day Curative, read-out: PUCCRT 3DC (Wheat Brown Rust, 3 Day Curative)
[5] = 24 h, 1 Day Protectant, read-out: SEPTTR 1DP % Control rating
[6] = 72 h, 3 Day Curative, read-out: SEPTTR 3DC % Control rating
[7] = 24 h, 1 Day Protectant, read-out: PUCCRT 1DP % Control rating
[8] = 72 h, 3 Day Curative, read-out: PUCCRT 3DC % Control rating

Row | Structure (SMILES) | pest or weed control at 121.5 g/ha (Zymoseptoria tritici; [1]) | pest or weed control at 121.5 g/ha (Zymoseptoria tritici; [2]) | pest or weed control at 121.5 g/ha (Puccinia triticina; [3]) | pest or weed control at 121.5 g/ha (Puccinia triticina; [4]) | pest or weed control at 100 ppm (Zymoseptoria tritici; [5]) | pest or weed control at 100 ppm (Zymoseptoria tritici; [6]) | pest or weed control at 100 ppm (Puccinia triticina; [7]) | pest or weed control at 100 ppm (Puccinia triticina; [8])
1 | COc1ccnc(C(=O)N[C@@H](C)C(=O)O[C@@H](C)[C@H](Oc2ccc(C)cc2)c2ccc(F)cc2)c1OC(C)=O [Example 247] | > 80% | > 80% | > 80% | > 80% | – | – | – | –
2 | COc1ccnc(C(=O)N[C@@H](C)C(=O)O[C@@H](C)[C@@H](Oc2ccc(Cl)cc2Cl)c2ccccc2)c1OC(=O)C(C)C [Example 215] | < 80% | < 80% | < 80% | < 80% | – | – | – | –
3 | COc1ccnc(C(=O)N[C@@H](C)C(=O)O[C@@H](C)[C@@H](Oc2ccccc2)c2cccnc2)c1OC(C)=O [Example 211] | < 0% | < 80% | < 0% | < 80% | – | – | – | –
4 | COc1ccnc(C(=O)N[C@@H](C)C(=O)O[C@@H](C)[C@H](Oc2ccc(C)cc2Cl)c2ccc(F)cc2)c1OCOC(C)=O [Example 245] | > 80% | > 80% | > 80% | < 80% | – | – | – | –
5 | CCOc1cc(F)ccc1[C@@H](Oc1ccccc1)[C@H](C)OC(=O)[C@H](C)NC(=O)c1nccc(OC)c1O [Example 168] | – | – | – | – | > 80% | > 80% | > 80% | > 80%
6 | COc1ccnc(C(=O)N[C@@H](C)C(=O)O[C@@H](C)[C@@H](Oc2ccccc2)c2ccccc2)c1OCOC(C)=O [Example 219] | > 80% | > 80% | > 80% | > 80% | – | – | – | –
7 | COc1ccnc(C(=O)N[C@@H](C)C(=O)O[C@@H](C)[C@H](Oc2ccc(C)cc2)c2ccccc2)c1OC(C)=O [Example 246] | > 80% | > 80% | > 80% | > 80% | – | – | – | –
8 | COc1ccnc(C(=O)N[C@@H](C)C(=O)O[C@@H](C)[C@@H](OC)c2ccccc2)c1O [Example 140] | – | – | – | – | < 0% | < 80% | < 80% | > 80%
9 | COc1ccnc(C(=O)N[C@@H](C)C(=O)O[C@@H](C)[C@H](Oc2ccccc2)c2ccc(F)cc2OCC2CC2)c1O [Example 175] | – | – | – | – | > 80% | < 80% | > 80% | > 80%
10 | COc1ccnc(C(=O)N[C@@H](C)C(=O)O[C@@H](C)[C@@H](OCC(C)C)c2ccccc2)c1OC(C)=O [Example 224] | < 80% | < 80% | > 80% | > 80% | – | – | – | –
11 | COc1ccnc(C(=O)N[C@@H](C)C(=O)O[C@@H](C)[C@@H](Oc2ccccc2)c2ccccc2)c1OC(C)=O [Example 217] | > 80% | > 80% | > 80% | < 80% | – | – | – | –
12 | COc1ccnc(C(=O)N[C@@H](C)C(=O)O[C@@H](C)[C@H](Oc2ccc(C)cc2)c2ccc(C)cc2)c1OCOC(C)=O [Example 257] | > 80% | > 80% | > 80% | > 80% | – | – | – | –
13 | COc1ccnc(C(=O)N[C@@H](C)C(=O)O[C@@H](C)[C@@H](Oc2ccccc2)c2ccccc2)c1OC(=O)C(C)C [Example 218] | > 80% | < 80% | < 0% | < 0% | – | – | – | –
14 | COc1ccnc(C(=O)N[C@@H](C)C(=O)O[C@@H](C)[C@@H](OCC(C)C)c2ccccc2)c1OCOC(C)=O [Example 226] | < 80% | < 80% | > 80% | > 80% | – | – | – | –
15 | COc1ccnc(C(=O)N[C@@H](C)C(=O)O[C@@H](C)[C@H](Oc2ccccc2)c2ccccc2)c1O [Example 114] | – | – | – | – | > 80% | > 80% | > 80% | > 80%
16 | COc1ccnc(C(=O)N[C@@H](C)C(=O)O[C@@H](C)[C@H](Oc2ccccc2)c2ccc(-c3ccccc3)cc2)c1O [Example 144] | – | – | – | – | > 80% | < 80% | > 80% | < 80%
17 | COc1ccnc(C(=O)N[C@@H](C)C(=O)O[C@@H](C)[C@H](Oc2ccc(C)cc2)c2ccc(F)cc2)c1O [Example 152] | – | – | – | – | > 80% | > 80% | > 80% | > 80%

Row | Structure (SMILES) | pest or weed control at 121.5 g/ha (Zymoseptoria tritici; [1]) | pest or weed control at 121.5 g/ha (Zymoseptoria tritici; [2]) | pest or weed control at 121.5 g/ha (Puccinia triticina; [3]) | pest or weed control at 121.5 g/ha (Puccinia triticina; [4]) | pest or weed control at 100 ppm (Zymoseptoria tritici; [5]) | pest or weed control at 100 ppm (Zymoseptoria tritici; [6]) | pest or weed control at 100 ppm (Puccinia triticina; [7]) | pest or weed control at 100 ppm (Puccinia triticina; [8])
18 | COc1ccnc(C(=O)N[C@H](C(=O)O[C@@H](C)[C@H](Oc2ccc(C(F)(F)F)cc2)c2ccccc2)C(C)C)c1OCOC(C)=O [Example 197] | > 80% | < 0% | > 80% | < 80% | – | – | – | –
19 | COc1ccnc(C(=O)N[C@@H](C)C(=O)O[C@@H](C)[C@H](Oc2cccc(F)c2)c2cccc(-c3ccccc3)c2)c1OC(C)=O [Example 223] | > 80% | > 80% | > 80% | < 80% | – | – | – | –
20 | COc1ccnc(C(=O)N[C@@H](C)C(=O)O[C@@H](C)[C@H](Oc2ccc(F)cc2)c2ccccc2)c1O [Example 146] | – | – | – | – | > 80% | > 80% | > 80% | > 80%
21 | COc1ccnc(C(=O)N[C@@H](C)C(=O)O[C@@H](C)[C@@H](OC)c2ccccc2)c1OC(C)=O [Example 229] | < 0% | < 80% | < 0% | > 80% | – | – | – | –
22 | COc1ccnc(C(=O)N[C@@H](C)C(=O)O[C@@H](C)[C@H](Oc2ccccc2)c2ccc(F)cc2F)c1OC(C)=O [Example 251] | > 80% | > 80% | > 80% | > 80% | – | – | – | –
23 | COc1ccnc(C(=O)N[C@@H](C)C(=O)O[C@@H](C)[C@H](Oc2ccccc2)c2nccs2)c1O [Example 132] | – | – | – | – | < 80% | < 0% | > 80% | < 80%
24 | COc1ccnc(C(=O)N[C@@H](Cc2ccccc2)C(=O)O[C@@H](C)[C@H](Oc2cccc(F)c2)c2ccccc2)c1OCOC(C)=O [Example 189] | < 80% | < 0% | > 80% | < 80% | – | – | – | –
25 | COc1cccc([C@@H](Oc2ccccc2)[C@H](C)OC(=O)[C@H](C)NC(=O)c2nccc(OC)c2OCOC(C)=O)c1 [Example 258] | > 80% | > 80% | > 80% | > 80% | – | – | – | –
26 | COc1ccnc(C(=O)N[C@@H](C)C(=O)O[C@@H](C)[C@H](Oc2ccc(C(F)(F)F)cc2)c2ccccc2)c1OC(C)=O [Example 196] | > 80% | > 80% | > 80% | < 80% | – | – | – | –
27 | COc1ccnc(C(=O)N[C@@H](C)C(=O)O[C@@H](C)[C@H](Oc2ccccc2)c2cccc(-c3ccccc3)c2)c1O [Example 145] | – | – | – | – | > 80% | > 80% | > 80% | < 80%
28 | COc1ccnc(C(=O)N[C@@H](C)C(=O)O[C@@H](C)[C@H](Oc2ccc(C)cc2Cl)c2ccc(F)cc2)c1O [Example 150] | – | – | – | – | > 80% | < 80% | > 80% | > 80%
29 | COc1ccnc(C(=O)N[C@@H](C)C(=O)O[C@@H](C)[C@H](Oc2ccc(C)cc2)c2ccccc2)c1O [Example 151] | – | – | – | – | > 80% | < 80% | > 80% | > 80%
30 | COc1ccnc(C(=O)N[C@@H](C)C(=O)O[C@@H](C)[C@@H](OCC(C)C)c2ccccc2)c1O [Example 136] | – | – | – | – | < 80% | < 0% | < 0% | < 80%
31 | COc1cc(F)ccc1[C@@H](OC(=O)C(C)(C)C)[C@H](C)OC(=O)[C@H](C)NC(=O)c1nccc(OC)c1O [Example 290] | – | – | – | – | > 80% | > 80% | > 80% | > 80%
32 | COc1ccnc(C(=O)N[C@@H](C)C(=O)O[C@@H](C)[C@H](Oc2ccc(C)cc2Cl)c2ccccc2)c1OC(C)=O [Example 243] | > 80% | > 80% | > 80% | < 80% | – | – | – | –
33 | COc1ccnc(C(=O)N[C@@H](C)C(=O)O[C@@H](C)[C@H](Oc2ccccc2Cl)c2ccccc2)c1O [Example 117] | – | – | – | – | > 80% | > 80% | > 80% | > 80%
